Results on 2 compounds are retold here after patent US9486440B2, “Uses of indole-ketones or indolidones as neuro-protective drugs” (UNIVERSITY OF MACAU, priority 2011, dated 2016).

The structures appear in SMILES notation.

The target of data set [1] is T1, recombinant human inducible NOS (iNOS) (Homo sapiens, UniProt P35228).
T1 construct: purchased Alexis Biochemicals (Lausen, Switzerland)
Kind of data set: In vitro NOS activity assay, iNOS. The data set is classed as biochemical. Particulars: up to 1 mM. The method, then: In the in vitro NOS activity assay (Li et al., 2007), purified recombinant human nNOS, endothelial NOS (eNOS), and inducible NOS (iNOS) were bought from Alexis Biochemicals (Lausen, Switzerland). NOS activity was determined by monitoring the conversion of L-[3H]arginine to [3H]citrulline following the instructions provided in the kit (Calbiochem, USA). The reaction mixture contained a final volume of 40 μl with 25 mM Tris-Cl at pH 7.4, 3 μM tetrahydrobiopterin, 1 μM FAD, 1 μM FMN, 1 mM NADPH, 0.6 mM CaCl2, 0.1 μM calmodulin, 2.5 μg of pure NOS enzyme, 5 μl L-[3H]arginine (Perkin Elmer, Waltham, Mass., USA), and different concentrations of the tested reagents. The reaction mixture was incubated at 22° C. for 45 min. The reaction was quenched by adding 400 μl of stopping buffer (50 mM HEPES, pH 5.5, and 5 mM EDTA) for nNOS and eNOS reactions or by heating reactive tubes for iNOS. Unreacted L-[3H]arginine was then trapped by 100 μl of equilibrated resin provided in a spin cup followed by centrifugation for 30 s at 13,200 rpm. The filtrate was quantified by liquid scintillation counting.

Data set [2] has as its system retinal photoreceptors or ganglion cells. Particulars: 3 mg of SU4312 every 5 days for 12 weeks; cited from earlier work.
Data set [3] can be described thus: SU4312 in brain homogenate of rats after i.p. administration (HPLC). The class given is in vivo, rat. Particulars: 12 mg/kg i.p. The method, then:
To investigate whether SU4312 could reach the brain, an HPLC method was used to detect SU4312 in the brain homogenate and plasma of rats (Scott et al., 2004; Spitsin et al., 2008). Briefly, after drug administration by i.p., the animals were transcardially perfused with PBS/heparin (1000 U/L). Then rats were sacrificed by decapitation and brain tissue was homogenized. SU4312 in the brain homogenate was extracted with 3 ml […]. After evaporating the solvent, the residue was reconstituted in 50 μl methanol. SU4312 in the brain tissue was identified by an Agilent 1200 Series HPLC coupled with UV detector at a wavelength of 254 nm. Prior to the preparation of brain homogenate, transcardial perfusion with PBS/heparin was conducted in order to remove blood from cerebravascular system so as to avoid the interference of the SU4312 that simply retained in the brain vasculature.
Plasma concentration of SU4312 was also assayed by an HPLC method. Briefly, after drug administration by i.p., serial blood samples were collected through right internal jugular vein catheterization at various time points post-dosing. The plasma samples were treated with acetonitrile and methanol followed by centrifugation, and 20 μl supernatants were injected into the liquid chromatographic system. The mobile phase consisted of a mixture of methanol and water (80:20, v/v) at a flow rate of 1 ml/min.

Regarding `Clc1ccc(Nc2nnc(Cc3ccncc3)c3ccccc23)cc1` [PTK787/ZK222584], in data set [1], the “inhibition of recombinant human iNOS” value is listed as “did not inhibit any of the isoforms even at 1 mM”.

As to `CN(C)c1ccc(C=C2C(=O)Nc3ccccc32)cc1` [SU4312, 3-[4-(dimethylamino)benzylidenyl]indolin-2-one], the “damage to retinal photoreceptors or ganglion cells” value in data set [2] is “did not damage retinal photoreceptors or ganglion cells”. In addition, the “detection in the brain, 15 min” value in data set [3] (15 min post-administration) was “could rapidly penetrate into the brain and be detected in the brain 15 min post-administration”. For the same compound, the “detection in the brain, 60 min” value in data set [3] (60 min after administration) was “almost no SU4312 was detected in the brain”.
